PMC6749236, “Synthesis of Novel 2-(Het)arylpyrrolidine Derivatives and Evaluation of Their Anticancer and Anti-Biofilm Activity” (Molecules, 2019)
Several values for one entry are separate records, joined by “and”; a condition that tells them apart may be missing. Identical values can stand only once. Marks after values point to notes of the source that are not given here.

What was measured:
[1] = tested on: M-Hela; test: Cytotoxicity assay (Cytell Cell Imaging, DAPI/propidium iodide), cancer cell line; type: cell-based; conditions: Homo sapiens; M-Hela; tested at 1–100 µM; three independent experiments; read-out: IC50 Cancer Cell Line M-Hela
[2] = tested on: Escherichia coli MG1655 (pRecA-lux); test: Genotoxicity, bacterial lux-biosensor; type: cell-based
From the text: (§1) E. coli MG1655 (pRecA-lux) was used for the evaluation of the genotoxicity of the synthesized compounds. The biosensor with the PrecA promotor fixes the presence of the factors causing damage of DNA in a cell. The biosensor E. coli MG1655 (pSoxS-lux) was used for the evaluation of prooxidant activity. The biosensor with the PsoxS promoter fixes the production of superoxide anion and NO [75]. Bioluminescent strains were obtained by the transformation of E. coli MG1655 by hybrid plasmids pRecA-lux, pSoxS-lux. The gene cassette luxCDABE Photorhabdus luminescens under the control PrecA promoters was used in this biosensor. This plasmid was created on the basis of pBR322 and contained a selective marker of ampicillin resistance (Amp gene). The strains were kindly furnished by Manukhov I.V., Federal State Unitary Enterprise “GosNIIGenetika”).
(§2) The bacterial strains Acinetobacter calcoaceticus VKPM B-10353, E. coli MG1655 (pRecA-lux), and E. coli MG1655 (pSoxS-lux) were cultivated in Luria–Bertani (LB) medium under constant shaking to early exponential phase at 37 °C. Cells were used immediately for stress induction tests. One hundred micrograms of ampicillin per milliliter were added into LB medium at cultivation of E. coli MG1655 (pRecA-lux) and E. coli MG1655 (pSoxS-lux). Strain V. aquamarinus DSM 26054 was grown in LB medium supplemented with 3% NaCl.
(§3) Biosensors assay procedure. The detailed protocol of toxicity testing by means of a bacterial lux-biosensors is described in the article.
(§4) Calculation. The criterion of toxic influence was bioluminescence intensity change of the test object in the researched sample in comparison with the control sample.
(§5) The induction factor (I) was defined as the relation of luminescence intensity of a lux-biosensor suspension containing tested sample (Lc) to the luminescence intensity of a lux-biosensor control suspension (Lk): I = Lc/Lk.
If at significant differences from control induction factor values were ≤2, the detected genotoxic effect was evaluated as “weak”, if they were in the range from 2 to 10 as “medium”, and above 10 as “strong”. All the experiments were carried out three times independently.
(§6) Difference reliability of bioluminescence in experiment from control value was estimated by t-criterion with the help of Excel software. The conclusions about sample toxicity were made at p < 0.05.

[3] = tested on: E. coli MG1655 (pSoxS-lux); test: Prooxidant activity, bacterial lux-biosensor; type: cell-based, Escherichia coli
From the text: as §1, §2, §3, §4, §5, §6

[4] = tested on: Acinetobacter calcoaceticus VKPM B-10353; test: Biofilm formation, crystal violet assay; type: cell-based; conditions: A. calcoaceticus VKPM B-10353; for Biofilm Formation: control = 100%
Description: (§7) Bacterial strains and cultivation conditions. For the detection of biofilms, formation strains Vibrio aquamarinus DSM 26054 and Acinetobacter calcoaceticus VKPM B-10353 were used. These strains form biofilms, making them useful for studying biofilms.
as §2
(§8) The test compounds were dissolved in DMSO to the concentration of 1 × 10^−2 M. Then, they were diluted with ethanol. The control solutions were analogous dilutions of DMSO in ethanol. The tested compounds were also compared with the standard antibiotic azithromycin. Azithromycin was dissolved in DMSO to the concentration of 5 × 10^−3 M and then diluted with deionized water.
(§9) Test system for evaluation of biofilms production. To quantify the formation of biofilms, the crystal violet assay was used, with some modifications. The necessary concentrations of the test compounds were prepared as described above.
(§10) V. aquamarinus DSM 26054 was cultivated for 24 h in LB medium supplemented with 3% NaCl in the Innova 40R shaker incubator (New Brunswick Scientific, USA) at 25 °C and 200 rpm. A. calcoaceticus VKPM B-10353 was cultivated for 24 h in LB medium in the Innova 40R shaker incubator (New Brunswick Scientific, Enfield, CT, USA) at 30 °C and 200 rpm. Then, the suspensions of the daily culture of V. aquamarinus DSM 26054 and A. calcoaceticus VKPM B-10353 were diluted with LB medium supplemented with 3% NaCl to the density of 1 × 10^8 cells/mL.
(§11) The resulting suspension (180 μL) was added to the wells of a polystyrene microplate (Nuova Aptaca, Canelli, Italy). To some of the wells, 20 μL of the test substances at various concentrations were added. Since solvents used could also influence the biofilm formation, 20 μL of the appropriate solvent was added to the other part of the wells at same dilutions (control). Six replicates were done for each treatment and control. The microplate was covered with a lid and wrapped with Parafilm (Bemis Company, Inc., Oshkosh, WI, USA).
(§12) After incubation at 25 °C for 72 h, biofilms were stained. The contents in the wells were removed by means of a dispenser. The wells were then carefully washed three times with 250 μL of sterile saline. The microplates were shaken to remove all non-adherent bacteria. Biofilms were fixed with 200 μL of 96% ethanol for 15 min. After the microplates had dried in air, 200 μL of 0.5% crystal violet was introduced into the wells. After 10 min, the dye was removed. The excess dye was removed by washing with water three times. After the microplates were air-dried, the dye in the wells bound to biofilms was dissolved with 200 μL of 96% ethanol. The extraction level (absorption) of crystal violet by ethanol was measured after 60 minutes at a wavelength of 570 nm using a FLUOstar Omega microplate reader (BMG Labtech, Offenburg, Germany) in optical density units (OD570). The intensity of biofilm formation directly corresponds to the intensity of staining of the contents of the wells with the dye. Biofilm formation was determined by the difference between the mean OD readings obtained in the presence of compounds and the control.
(§13) Each experiment was performed in triplicate. The values were expressed as mean + SD. Student’s t-test was used to compare these values. Differences were considered statistically significant at p < 0.05.

[5] = tested on: Vibrio aquamarinus DSM 26054; test: Biofilm formation, crystal violet assay; type: cell-based; conditions: V. aquamarinus DSM 26054, control = 100%
Description: as §7, §2, §8, §9, §10, §11, §12, §13

[6] = tested on: Chang liver cell line; test: Cytotoxicity assay (Cytell Cell Imaging), normal cell line; type: cell-based; conditions: Homo sapiens, tested at 1–100 µM, three independent experiments, read-out: IC50 Normal Cell Line Chang Liver
[7] = concentration range of 10^−9–10^−5 M
[8] = with metabolic activation (+S9), 10^−5 M
[9] = with metabolic activation (+S9), 10^−6 M
[10] = with metabolic activation (+S9), 10^−7 M
[11] = with metabolic activation (+S9), 10^−8 M
[12] = with metabolic activation (+S9), 10^−9 M
[13] = without metabolic activation (-S9), 10^−5 M
[14] = without metabolic activation (-S9), 10^−6 M
[15] = without metabolic activation (-S9), 10^−7 M
[16] = without metabolic activation (-S9), 10^−8 M
[17] = without metabolic activation (-S9), 10^−9 M

| SMILES | IC50 [1] | detected genotoxic effect, class [2, 7] | Genotoxicity (induction factor, I) [2, 8] | Genotoxicity (induction factor, I) [2, 9] | Genotoxicity (induction factor, I) [2, 10] | Genotoxicity (induction factor, I) [2, 11] | Genotoxicity (induction factor, I) [2, 12] | Genotoxicity (induction factor, I) [2, 13] | Genotoxicity (induction factor, I) [2, 14] | Genotoxicity (induction factor, I) [2, 15] | Genotoxicity (induction factor, I) [2, 16] | Genotoxicity (induction factor, I) [2, 17] | Prooxidant activity (induction factor) ([3]; 10^−5 M) | Prooxidant activity (induction factor) ([3]; 10^−6 M) | Prooxidant activity (induction factor) ([3]; 10^−7 M) | Prooxidant activity (induction factor) ([3]; 10^−8 M) | Prooxidant activity (induction factor) ([3]; 10^−9 M) | Biofilm Formation ([4]; 1 × 10^−5 M) | Biofilm Formation ([4]; 1 × 10^−6 M) | Biofilm Formation ([4]; 1 × 10^−7 M) | also measured |
| --- | --- | --- | --- | --- | --- | --- | --- | --- | --- | --- | --- | --- | --- | --- | --- | --- | --- | --- | --- | --- | --- |
| COc1ccc(NC(=O)N2CCCC2c2ccc(Nc3c([N+](=O)[O-])c(Cl)cc4c3no[n+]4[O-])cc2O)cc1 (stereo not drawn) [6c, 6-Chloro-4-((3-hydroxy-4-(1-((4-methoxyphenyl)carbamoyl)pyrrolidin-2-yl)phenyl)amino)-5-nitrobenzo[c][1,2,5]oxadiazole 1-oxide] | 26 ± 1.9 µM | medium (in the range from 2 to 10) | 1.35 ± 0.02 | 1.54 ± 0.03 | 1.49 ± 0.02 | 1.37 ± 0.02 | 1.30 ± 0.01 | 2.33 ± 0.04 | 2.82 ± 0.05 | 2.64 ± 0.14 | 2.84 ± 0.02 | 2.67 ± 0.07 | 0.96 ± 0.09 | 1.46 ± 0.03 | 1.68 ± 0.20 | 1.54 ± 0.20 | 1.11 ± 0.03 | 82.82% | 79.31 * % | 72.77 * % | genotoxicity under conditions of metabolic activation, in words ([2]; +S9, concentration range of 10^−7–10^−6 M): registered; prooxidant response, in words ([3]; 10^−8–10^−7 M): weak response; Biofilm Formation ([4]; 1 × 10^−8 M): 55.74 * %; Biofilm Formation ([4]; 1 × 10^−9 M): 93.75%; Biofilm Formation ([5]; 1 × 10^−5 M): 26.65 * %; Biofilm Formation ([5]; 1 × 10^−6 M): 18.28 * %; Biofilm Formation ([5]; 1 × 10^−7 M): 9.22% and 9.22 * %; Biofilm Formation ([5]; 1 × 10^−8 M): 14.67 * %; Biofilm Formation ([5]; 1 × 10^−9 M): 13.54% and 13.54 * %; melting point: 196 to 202 °C (dec.); IC50 [6]: 62 ± 4.3 µM |
| O=C(Nc1ccccc1)N1CCCC1c1ccc(Nc2c([N+](=O)[O-])c(Cl)cc3c2no[n+]3[O-])cc1O (stereo not drawn) [6b, 6-Chloro-4-((3-hydroxy-4-(1-(phenylcarbamoyl)pyrrolidin-2-yl)phenyl)amino)-5-nitrobenzo[c][1,2,5]oxadiazole 1-oxide] | 56 ± 4.1 µM | medium (in the range from 2 to 10) | 1.23 ± 0.02 | 1.36 ± 0.04 | 1.30 ± 0.02 | 1.31 ± 0.01 | 1.47 ± 0.04 | 1.77 ± 0.04 | 2.15 ± 0.06 | 2.07 ± 0.11 | 2.28 ± 0.12 | 2.34 ± 0.06 | 0.89 ± 0.03 | 1.24 ± 0.11 | 1.04 ± 0.04 | 1.21 ± 0.00 | 1.03 ± 0.10 | 119.69 * % | 88.44% | 73.93 * % | detected genotoxic effect, class ([2]; concentration of 10^−5 M): weak (induction factor values were ≤2); prooxidant activity, in words ([3]; 10^−9–10^−5 M): did not possess prooxidant activity; Biofilm Formation ([4]; 1 × 10^−8 M): 70.79 * %; Biofilm Formation ([4]; 1 × 10^−9 M): 90.41%; Biofilm formation with respect to control, over the investigated concentrations ([4]; 1 × 10^−9–1 × 10^−5 M): both suppressing and stimulating; Biofilm Formation ([5]; 1 × 10^−5 M): 89.12%; Biofilm Formation ([5]; 1 × 10^−6 M): 39.02 * %; Biofilm Formation ([5]; 1 × 10^−7 M): 26.04 * %; Biofilm Formation ([5]; 1 × 10^−8 M): 15.42 * %; Biofilm Formation ([5]; 1 × 10^−9 M): 8.21 * %; melting point: 165 to 170 °C (dec.); IC50 [6]: > 100 µM |
| O=C(Nc1ccc(F)cc1)N1CCCC1c1ccc(Nc2c([N+](=O)[O-])c(Cl)cc3c2no[n+]3[O-])cc1O (stereo not drawn) [6e, 6-Chloro-4-((4-(1-((4-fluorophenyl)carbamoyl)pyrrolidin-2-yl)-3-hydroxyphenyl)amino)-5-nitrobenzo[c][1,2,5]oxadiazole 1-oxide] | 26 ± 1.8 µM | medium (in the range from 2 to 10) | 1.24 ± 0.02 | 1.47 ± 0.04 | 1.45 ± 0.02 | 1.35 ± 0.04 | 1.43 ± 0.01 | 2.00 ± 0.02 | 2.39 ± 0.02 | 2.46 ± 0.02 | 2.74 ± 0.04 | 2.56 ± 0.10 | 0.84 ± 0.04 | 1.34 ± 0.10 | 1.85 ± 0.15 | 1.25 ± 0.28 | 0.93 ± 0.03 | 86.50% | 53.27 * % | 55.40 * % | prooxidant response, in words ([3]; 10^−7 M): weak response; Biofilm Formation ([4]; 1 × 10^−8 M): 47.66 * %; Biofilm Formation ([4]; 1 × 10^−9 M): 87.92 * %; Biofilm Formation ([5]; 1 × 10^−5 M): 39.57 * %; Biofilm Formation ([5]; 1 × 10^−6 M): 26.02 * %; Biofilm Formation ([5]; 1 × 10^−7 M): 11.01% and 11.01 * %; Biofilm Formation ([5]; 1 × 10^−8 M): 17.96 * %; Biofilm Formation ([5]; 1 × 10^−9 M): 67.29%; melting point: 175 to 177 °C (dec.); IC50 [6]: 48 ± 3 µM |
